Measured values taken from US11331269B2, “Methods and compositions targeting lung microbiota and its responding immune pathways for lung cancer treatment” (Massachusetts Institute of Technology, priority 2018, dated 2022).

Tests used:
[1] = system: IL-17 producing γδ T cells; assay: Flow cytometry of IL-17 producing γδ T cells in tumor-bearing lung; format: in vivo, mouse; settings: KP mice, antibiotics in drinking water
Experimental: Mice were injected retro-orbitally with a PE-CF594 conjugated anti-CD45 antibody (30-F11, BD Bioscience) 2 minutes prior to euthanasia to label the immune cells in the circulation. Lungs were collected, cut into small pieces, and digested with 125 U/mL collagenase IV (Worthington Biochemical) and 40 U/mL DNase I (Roche) for 30 minutes at 37° C. Dissociated lung tissue was then filtered with a 100 μm cell strainer. Spleen and lymph node samples were ground and passed through a 100 μm cell strainer. After blocking FcgRIII/II with an anti-CD16/CD32 mAb (eBioscience), single cell suspensions were stained with the following antibodies: CD45.2 (104), CD45.1 (A20), Ly6G (1A8), CD11b (M1/70), TCRβ (H57-597), TCRγδ (GL3 or UC7-13D5), CD3 (17A2), CD4 (RM4-5), CD8 (53-6.7), Vγ1 (Vg1.1, 2.11), Vγ4 (Vγ2, UC3-10A6), IFN-γ (XMG1.2), IL-17A (TC11-18H10.1), TNF-α (MP6-XT22), IL-17F (ebio18F10), CD44 (IM7), CD27 (LG.3A10), CD69 (H1.2F3), PD-1 (29F. 1A12), PD-L1 (10F.9G2), T-bet (eBio4B10), RORγt (B2D), PLZF (Mags.21F7) and Ki67 (B56) purchased from eBioscience, BD or Biolegend. […] Flow cytometry was performed on the LSR II or LSRFortessa (BD), and data were analyzed by the FlowJo software (Treestar). […]
Flow cytometry and FACS was performed as described above in Example 3. […] Flow cytometry was performed on the LSR II or LSRFortessa (BD), and data were analyzed by the FlowJo software (Treestar). […]

[2] = system: bacterial abundance in the gut; assay: Fecal bacterial load by 16S rDNA-based qPCR; format: in vivo, mouse; settings: SPF KP mice, metronidazole alone in drinking water
Experimental: Fecal pellets were collected from the colon at the time of tissue harvest. BALF and fecal samples were processed for DNA isolation using a previously established protocol (Palm, et al., Cell. 158(5):1000-1010 (2014); Turnbaugh, et al., Nature. 457(7228):480-4 (2009)). […] E. coli genomic DNA was used as a standard, with samples at 1, 0.1, 0.01, and 0.001 ng per reaction used to create a standard curve.

IL-17A = IL-17A ELISA in BALF or serum of KP mice; format: in vivo, mouse; settings: antibiotics in drinking water
Experimental: IL-17 levels in serum or bronchoalveolar lavage fluid were measured using a mouse IL-17A ELISA kit (eBioscience) according to the manufacturer's instructions.
IL-17 levels were measured using a mouse IL-17A ELISA kit (eBioscience) according to the manufacturer's instructions.
IL-17A levels were measured using a mouse IL-17A ELISA kit (eBioscience) according to the manufacturer's instructions.

[3] = system: lung adenocarcinoma in KP mice; assay: Tumor development (tumor burden/grade by histology) in autochthonous KP GEM model of lung adenocarcinoma; settings: SPF KP mice, metronidazole alone (1 g/L) in drinking water starting 5 weeks post tumor initiation (FIG. 2E)
Source text: The genetically-engineered mouse (GEM) model of human LUAD has previously been described (DuPage, et al.). In this model, the mice harbor conditional alleles of Kras^LSL-G12D and p53^flox/flox (KP mice). Upon intratracheal infection with adenoviral vectors expressing the Cre-recombinase under the control of the Sftpc promoter, oncogenic KrasG12D is activated and the tumor suppressor p53 is deleted in lung epithelial cells to induce lung adenoma and adenocarcinoma.
Germ-free KP mice were housed in gnotobiotic isolators, which were sampled every 2 weeks and confirmed negative for bacterial and fungal contaminants by culture, fecal Gram stain, and PCR using universal 16S rRNA primers. […]
Tumor-bearing lung lobes and a portion of the spleen were fixed in 4% paraformaldehyde overnight and embedded in paraffin. […] Digitally scanned images of H&E or Ki67-stained slides were created with the Aperio ScanScope AT2 at 20× magnification and analyzed with the Aperio's WebScope software. For tumor burden quantification, tumor regions were outlined and the percentage of tumor area relative to total lung area was calculated for each mouse. For Ki67 index, tumor cells were classified based on the intensity of the nuclear Ki67 staining from 0 to 3+ by using a built-in Nuclear algorithm in the Webscope, and the percentage of nuclei with intense nuclear staining (3+) in total nuclei was calculated. […]

[4] = system: KP tumor-derived cell lines; assay: In vitro cell proliferation of tumor cell lines derived from primary lung tumors of KP mice; format: cell-based, mouse; settings: live cells 72 hours post treatment
Experimental: Tumor cell lines were derived from primary lung tumors of KP mice, and maintained in DMEM medium (Gibco) supplemented with 10% FBS (Sigma). Cells were serum-starved for 24 hours (1% FBS) before treated with recombinant human amphiregulin (Sigma-Aldrich) or recombinant mouse IL-22 (R&D Systems) at the indicated dose, or left untreated as controls. The number of live cells was determined 72 hours post treatment by counting the Trypan Blue (Gibco) negative cells or through the CellTiter-Glo Luminescent Cell Viability Assay (Promega) according to the manufacturer's instructions.

Cc1ncc([N+](=O)[O-])n1CCO [metronidazole]
abundance of IL-17 producing γδ T cells in the tumor-bearing lung [1]: dramatically decreased
overall bacterial abundance in the gut [2]: without substantially reducing the overall bacterial abundance in the gut
IL-17A levels in the BALF or serum (IL-17A): lower IL-17A levels
tumor growth in the lung (tumor burden) [3]: effectively suppressed tumor growth in the lung

B1: recombinant amphiregulin: recombinant human amphiregulin (Sigma-Aldrich), EGFR ligand (protein, UniProt P15514 101-187, looked up)
Amphiregulin: SVRVEQVVKPPQNKTESENTSDKPKRKKKGGKNGKNRRNRKKKNPCNAEFQNFCIHGECKYIEHLEAVTCKCQQEYFGERCGEKSMK
proliferation of KP tumor-derived cell lines ([4]; recombinant human amphiregulin, serum-starved cells): promoted proliferation of KP tumor-derived cell lines in a dose-dependent fashion

B2: recombinant IL-22: recombinant mouse IL-22 (R&D Systems) (protein, UniProt Q9JJY9 34-179, looked up)
Interleukin-22: LPVNTRCKLEVSNFQQPYIVNRTFMLAKEASLADNNTDVRLIGEKLFRGVSAKDQCYLMKQVLNFTLEDVLLPQSDRFQPYMQEVVPFLTKLSNQLSSCHISGDDQNIQKNVRRLKETVKKLGESGEIKAIGELDLLFMSLRNACV
tumor cell proliferation in vitro ([4]; recombinant mouse IL-22, serum-starved KP tumor cell lines): stimulated tumor cell proliferation in vitro
